Where “and” joins values, the source holds several entries; their conditions need not be identical. Equal values may be shown once.
Experiments:
[1] = target: Cuscuta Receptor 1 (CuRe1), myc-tagged (tomato (Solanum lycopersicum))
CuRe1 [2] = test: Ethylene bioassay, leaf pieces of transgenic CuRe1-expressing N. benthamiana; type: cell-based, S. lycopersicum (tomato), expressed in N. benthamiana; parameters: ethylene measurement, average: unit not given here; settings: for activity in CuRe1-dependent ethylene induction (in words) / concentration at which ethylene production is triggered (minimum effective concentration): CuRe1-expressing N. benthamiana leaves; for concentration at which ethylene production is triggered (minimum effective concentration): dose-dependent ethylene bioassay; for Ethylene, MW: RepFig 3a_2, H2O
Protocol: (§1) All obtained extracts or collected fractions after each purification step, as well as the isolated CrGRP or synthesized Crip peptides were tested for bioactivity in the ethylene assay as previously described. For this we cut leaf samples of analyzed plants in 3 × 3 mm squares and float them on a water surface. After incubation over night at RT, three leaf pieces are carefully collected into glass tubes (6 ml) with 500 µl water. Samples were treated as indicated as well as amounts of used extracts or concentrations of peptides. After treatment tubes were sealed with a rubber plug and incubated at RT on a horizontal shaker (85–100 rpm) for 3 h. All samples were analyzed with a Gaschromatograph (Shimadzu, GC-2014, glass column 3 mm × 1.6 m with Al2O3) by manually injecting 1 ml of the gaseous phase.

N. benthamiana wt = test: Ethylene bioassay, leaf pieces of wildtype N. benthamiana; type: cell-based
Protocol: as §1

S. lycopersicum = test: Ethylene bioassay, leaf pieces of cultivated tomato; type: cell-based; settings: Suppl.Fig6c, peptides applied at 5 µM each, mean of the samples
Protocol: as §1

[3] = system: leaves of S. lycopersicum, IL 12-2, IL 8-1-1 and S. pennellii; test: Hypersensitive response (HR) cell death after peptide infiltration into tomato leaves; type: in vivo; settings: 7 days
Protocol: For monitoring hypersensitive responses (HR) in leaves, 35S::CrGRP:GFP or 35S::GFP constructs were expressed in either transgenic, CuRe1-expressing or wt N. benthamiana plants. Leaves were infiltrated as described above using the defined volume of 200 µl; infiltration area was carefully labeled with a black marker. Pictures were taken 7 days post infiltration. For detecting HR-symptoms in tomato plants, two leaves of three plants (six leaves total; per introgression line or wildtype) were infiltrated with 100 µl of a 100 nM peptide solution; infiltrated leaf area was labeled with a pen immediately after infiltration and photographs were taken 7 days post peptide infiltration.

[4] = MS analysis of Crip21 treated with NH4OH or ethylamine; type: physicochemical; settings: 12.5% NH4OH or 70% ethylamine
Protocol: The Cuscuta factor (CuF) could be inactivated by incubating it either with 12.5% NH4OH or 70% ethylamine for 1 h at 45 °C.
49 Supplementary Fig. 5. Inactivation of Crip21 by treatments with NH4OH or Ethylamine; (a) Crip21
51 biosynthesis in CuRe1-expressing N. benthamiana leaves. Peptide samples were applied at
52 concentrations of 100 nM. Bovine serum albumin (BSA; 0.01 mg/ml) buffered in 25 mM MES (pH
53 5.7) was added as mock control. FW, fresh weight; ethylene measurements show means of three
54 technical replicates; error bars denote SD. (b) incubation with NH4OH or Ethylamine leads to
56 products with different masses.
(1 picture or pasted object on this page, not shown here)

CuRe1 [5] = test: Affinity-crosslinking of bio-Crip29 with CuRe1 in planta; type: binding, S. lycopersicum (tomato), expressed in N. benthamiana
Protocol: In vivo cross-linking of biotin-Crip29 (Crip29 aa-sequence: […]) to CuRe1 was performed as described; leaves of N. benthamiana expressing 35S::CuRe1:myc, or control plants (N. benthamiana expressing 35S::RLP23:myc) were infiltrated with biotinylated bio-Crip29 (10 nM in ddH2O) with or without unlabeled Crip21 (or unlabeled Crip82-106) (10 μM) as competitor or with flg22 peptide as competition control. Five minutes after peptide treatment 2 mM EGS (ethylene glycol bis(succinimidyl succinate) in 25 mM HEPES buffer (pH 7.5) was infiltrated into the same leaves for cross-linking of peptides to the receptor proteins. Twenty minutes after cross-linking, leaf samples were harvested and frozen in liquid nitrogen; immunoprecipitations were performed against the myc tag present at the c-terminus of CuRe1 using myc-trap agarose beads (ChromoTek, IZB Martinsried, Germany) as described above. All peptides, including biotinylated bio-Crip29, were synthesized by GenScript® and ordered with a purity of >95%. Biotinylated Crip29 was detected on blots by Streptavidine-conjugated Alkaline Phosphatase (Strep-AP, Roche diagnostics; Streptavidin-AP conjugate, Cat. No.: 11089161001, dilution: 1:1000 in 5% Albumin Fraction V, biotin-free).

[6] = RepFig3b_2, 0.01 nM, mean of 3 samples
[7] = RepFig3b_2, 0.1 nM, mean of 3 samples
[8] = RepFig3b_2, 1 nM, mean of 3 samples
[9] = RepFig3b_2, 10 nM, mean of 3 samples
[10] = RepFig3b_2, 100 nM, mean of 3 samples
[11] = Fig3a + Supl4, N. benthamiana CuRe1, peptide 1 nM, mean of 3 technical replicates
[12] = Fig3a + Supl4, N. benthamiana CuRe1, peptide 10 nM, mean of 3 technical replicates
[13] = Fig3a + Supl4, N. benthamiana CuRe1, peptide 100 nM, mean of 3 technical replicates

In the case of CrGRP82-106 synthetic peptide, the ethylene production in CuRe1-expressing N. benthamiana, dose series of peptide [1] is reported as greater than 0.1 nM.

In the case of “Crip21: 21 aa cysteine-rich peptide, minimal epitope of C. reflexa glycine-rich protein CrGRP, synthesized (NCGNSGCCGGAYSNGQCKRCC)”, the “ethylene-inducing bioactivity after treatment with NH4OH” value (CuRe1 [2]; 12.5% NH4OH, 1 h at 45 °C, read-out ethylene in CuRe1 N. benthamiana, peptide 100 nM) is reported as “lost all of its activity”, the “ethylene-inducing bioactivity after treatment with ethylamine” value (CuRe1 [2]; 70% ethylamine, 1 h at 45 °C, read-out ethylene in CuRe1 N. benthamiana, peptide 100 nM) is reported as “loose activity” and the “activity in CuRe1-dependent ethylene induction (in words)” value (shortened to “activity … (in words)”) (CuRe1 [2]) is reported as “full activity”. The “concentration at which ethylene production is triggered (minimum effective concentration)” value (CuRe1 [2]) was greater than 0.1 nM, the “ethylene, average” value (CuRe1 [2]; Fig3a + Supl4, N. benthamiana CuRe1, amount printed as 1 µl, mean of 3 technical replicates) was 10 and the “ethylene, average” value (CuRe1 [2]; [6]) was 0.2767. For the same substance, the “ethylene, average” value (CuRe1 [2]; [7]) was 1.39, the “ethylene, average” value (CuRe1 [2]; [8]) was 4.143 and the “ethylene, average” value (CuRe1 [2]; [9]) was 8.283. For the same substance, the “ethylene, average” value (CuRe1 [2]; [10]) was 9.4, the “ethylene, average” value (CuRe1 [2]; Suppl.Fig5, N. benthamiana CuRe1, peptide samples 100 nM, untreated or treated with 12.5% NH4OH / 70% ethylamine, mean of 9 samples, values <0.2 not collected) was 3.844 and the “ethylene, average” value (CuRe1 [2]; Suppl.Fig6b, N. benthamiana CuRe1, 0.01 nM, mean of 3) was 0.375 pmol/ml air. The “ethylene, average” value (CuRe1 [2]; Suppl.Fig6b, N. benthamiana CuRe1, 0.1 nM, mean of 3) was 0.45 pmol/ml air, the “ethylene, average” value (CuRe1 [2]; Suppl.Fig6b, N. benthamiana CuRe1, 1 nM, mean of 3) was 1.1 pmol/ml air and the “ethylene, average” value (CuRe1 [2]; Suppl.Fig6b, N. benthamiana CuRe1, 10 nM, mean of 3) was 2.8 pmol/ml air. For the same substance, the “ethylene, average” value (CuRe1 [2]; Suppl.Fig6b, N. benthamiana CuRe1, 100 nM, mean of 3) was 11.3 pmol/ml air, the “ethylene, average” value (CuRe1 [2]; Suppl.Fig6b, N. benthamiana CuRe1, 1000 nM, 3 leaf pieces + 0.5 ml H2O / 6 ml tube, 3 h RT, mean of 3) was 11.6 pmol/ml air and the “ethylene measurement, average” value (CuRe1 [2]; Suppl.Fig6c, N. benthamiana Cure1, peptides applied at 5 µM each, mean of the samples) was 9.564. The “ethylene, average” value (N. benthamiana wt; Fig3a + Supl4, amount printed as 1 µl, mean of 3) was 0.2667, the “ethylene, average” value (N. benthamiana wt; Suppl.Fig5, peptide samples 100 nM, mean of 3, values <0.2 not collected) was 0.2 and the “ethylene measurement, average” value (N. benthamiana wt; Suppl.Fig6c, peptides applied at 5 µM each, mean of the samples) was 0.1967. The “ethylene measurement, average” value (S. lycopersicum) was 20.1539, the “HR-type cell death, plants lacking CuRe1” value ([3]; leaves of S. pennellii and IL8-1-1 infiltrated with 100 nM peptide) was “did not” and the “HR-type cell death, plants with functional CuRe1” value ([3]; leaves of cultivated tomato (S. lycopersicum) or IL 12-2 infiltrated with 100 nM peptide) was “showed Crip21-dependent cell death”. For the same substance, the “peptide mass signal after incubation with NH4OH or ethylamine” value [4] was “disappearance of the peptide mass signal”.

For “GGGGSGHGGHGKGKN [GRP15, 15 aa peptide that served as fingerprint for identification of CrGRP]”, the “activity … (in words)” value (CuRe1 [2]) was “completely inactive”, the “ethylene, average” value (CuRe1 [2]; [11]) was 0,2 and 0.2127 and the “ethylene, average” value (CuRe1 [2]; [12]) was 0,3 and 0.2733. For the same substance, the “ethylene, average” value (CuRe1 [2]; [13]) was 0,6 and 0.5933, the “ethylene, average” value (CuRe1 [2]; Fig3a + Supl4, N. benthamiana CuRe1, peptide 1000 nM, mean of 3 technical replicates) was 0,4 and 0.3733 and the “activity at 100 µM” value (CuRe1 [2]; authors' reply in peer review file, refers to Supplementary Fig. 4) was “no activity”.

For “GKGKNCGNSGCCGGAYSNGQCKRCCAYKG [bio-Crip29]”, the “activity … (in words)” value (CuRe1 [2]) was “as active as Crip21”, the “ethylene, average” value (CuRe1 [2]; [6]) was 0.2933 and the “ethylene, average” value (CuRe1 [2]; [7]) was 0.34. The “ethylene, average” value (CuRe1 [2]; [8]) was 1.017, the “ethylene, average” value (CuRe1 [2]; [9]) was 5.31 and the “ethylene, average” value (CuRe1 [2]; [10]) was 7.693. For the same substance, the “biotin labelling of CuRe1 immunoprecipitates” value (CuRe1 [5]; bio-Crip29 10 nM infiltrated, crosslinked with 2 mM EGS, myc-trap IP, Strep-AP blot) was “clear labelling”.

In the case of “GKNCGNSGCCGGAYSNGQCKRCCAY [CrGRP82-106, synthetic peptide representing CrGRP residues 82-106]”, the “concentration at which ethylene production is triggered (minimum effective concentration)” value (CuRe1 [2]) is reported as no less than 0.1 nM, the “ethylene, average” value (CuRe1 [2]; [11]) is reported as 5.823 and the “ethylene, average” value (CuRe1 [2]; [12]) is reported as 8.73. For the same substance, the “ethylene, average” value (CuRe1 [2]; [13]) was 9.817, the “Ethylene, MW” value (CuRe1 [2]; 1 nM, 3 h RT, mean of 3 samples) was 1.5 pmol/ml air and the “Ethylene, MW” value (CuRe1 [2]; 10 nM, 3 h RT, mean of 3 samples) was 4.6 pmol/ml air. The “Ethylene, MW” value (CuRe1 [2]; 100 nM, 3 h RT, mean of 3 samples) was 8.9 pmol/ml air, the “ethylene, average” value (CuRe1 [2]; [6]) was 0.29 and the “ethylene, average” value (CuRe1 [2]; [7]) was 1.63. For the same substance, the “ethylene, average” value (CuRe1 [2]; [8]) was 3.067, the “ethylene, average” value (CuRe1 [2]; [9]) was 8.457 and the “ethylene, average” value (CuRe1 [2]; [10]) was 11.2833. The “ethylene, average” value (N. benthamiana wt; Fig3a + Supl4, peptide 100 nM, mean of 3) was 0.2267.

With “non-modified Crip: unlabeled Crip21 or Crip82-106 (10 µM) used as competitor in crosslinking (NCGNSGCCGGAYSNGQCKRCC)” the “competition of bio-Crip29 labelling of CuRe1” value (CuRe1 [5]; bio-Crip29 10 nM with excess competitor (10 µM)) was “absent”.

Reference: article PMC7576778, “The tomato receptor CuRe1 senses a cell wall protein to identify Cuscuta as a pathogen” (Nature Communications, 2020)
